# Assay results published in patent US10988523B2, “Modified lipidated Relaxin B chain peptides and their therapeutic use” (Sanofi, priority 2018, dated 2021).
# *1 amine or outer side, *2 acyl side, *3 side chain or, on linkers, in order; H or OH if unused. Where a SMILES comes first, the peptide text is derived from it. Side-chain parts run from the residue outwards. [ ]: non-standard residue; d: D form. The star is where a group is joined. Lys(Me3) = C[N+](C)(C)CCCC[C@H](N)C(=O)O; γGlu = O=C(O)[C@H](CCC(=O)[*:2])N[*:1]; Arg(Me) = CNC(=N)NCCC[C@H](N)C(=O)O; Stearoyl = CCCCCCCCCCCCCCCCCC(=O)*; Palmitoyl = CCCCCCCCCCCCCCCC(=O)*; Cit = NC(=O)NCCC[C@H](N)C(=O)O; αMeK = C[C@](N)(CCCCN)C(=O)O; Nle = CCCC[C@H](N)C(=O)O; AEEA = NCCOCCOCC(=O)O; Aib = CC(C)(N)C(=O)O
# Biological target: T1, RXFP1 (Homo sapiens, UniProt Q9HBX9)
# T1 construct: OVCAR5 cells expressing endogenous RXFP1; endogenous in cells; host or cells: OVCAR5 cells
# T1 sequence (Q9HBX9 1-757): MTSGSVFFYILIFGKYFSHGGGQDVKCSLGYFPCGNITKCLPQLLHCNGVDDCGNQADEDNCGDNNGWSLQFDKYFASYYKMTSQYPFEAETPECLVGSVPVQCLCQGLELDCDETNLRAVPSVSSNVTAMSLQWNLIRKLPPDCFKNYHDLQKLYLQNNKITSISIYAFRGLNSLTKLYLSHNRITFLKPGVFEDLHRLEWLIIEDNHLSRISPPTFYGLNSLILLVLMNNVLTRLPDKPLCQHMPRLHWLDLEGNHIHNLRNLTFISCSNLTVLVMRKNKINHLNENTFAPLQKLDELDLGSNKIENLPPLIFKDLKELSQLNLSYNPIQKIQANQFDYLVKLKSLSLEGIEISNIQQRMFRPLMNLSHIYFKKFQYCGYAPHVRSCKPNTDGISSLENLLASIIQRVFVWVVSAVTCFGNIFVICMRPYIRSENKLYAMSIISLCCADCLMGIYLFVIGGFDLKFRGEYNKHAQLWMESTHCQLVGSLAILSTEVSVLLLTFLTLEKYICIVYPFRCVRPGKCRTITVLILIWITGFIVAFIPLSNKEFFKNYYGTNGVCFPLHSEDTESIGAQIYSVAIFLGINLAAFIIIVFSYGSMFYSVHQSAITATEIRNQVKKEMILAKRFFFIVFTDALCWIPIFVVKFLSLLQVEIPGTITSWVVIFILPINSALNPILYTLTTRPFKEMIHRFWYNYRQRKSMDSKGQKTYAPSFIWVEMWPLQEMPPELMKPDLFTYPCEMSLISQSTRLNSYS
# Assay: OVCAR5 cAMP assay (HTRF), RXFP1 agonist activity
# Format: cell-based
# Details: for Emax: OVCAR-5, maximal cAMP relative to H2-relaxin maximum (100%), read-out: EMax, OVCAR 5 cells (cAMP); for EC50: OVCAR5 cells, cAMP HTRF, read-out: EC50 (nM), OVCAR 5 cells (cAMP)
# Procedure, shortened: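 cAMP accumulation readout: after 1 mM IBMX for 40 min, endogenous-RXFP1 OVCAR5 cells got rising peptide concentrations without FCS, 30 min, 37° C, then lysis with HTRF cAMP reagents. Nonlinear regression gave EC50; Emax expressed relative to H2-relaxin maximum, same occasion.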
SMILES,Emax [%],EC50 [nM]
CCCCCCCCCCCCCCCCCC(=O)N[C@@H](CCC(=O)N[C@@H](CCC(=O)N[C@@H](CCC(=O)NCCOCCOCC(=O)NCCOCCOCC(=O)NCCOCCOCC(=O)NCCOCCOCC(=O)NCCCC[C@H](NC(=O)[C@H](CCCCNC(C)=O)NC(=O)[C@H](C)NC(=O)[C@H](CCCNC(N)=O)NC(=O)[C@](C)(CCCCN)NC(=O)[C@H](CO)NC(=O)[C@H](Cc1c[nH]c2ccccc12)NC(=O)[C@@H](NC(=O)[C@H](CO)NC(=O)[C@H](CCCC)NC(=O)CNC(=O)[C@H](CCC(=O)O)NC(=O)C(C)(C)NC(=O)C(C)(C)NC(=O)[C@@H](NC(=O)[C@H](CCCCNC(C)=O)NC(=O)[C@H](C)NC(=O)[C@H](CCCNC(=N)N)NC(=O)[C@@H](NC(=O)[C@H](CCCCN)NC(=O)[C@H](CCC(=O)O)NC(=O)[C@H](CCCNC(=N)N)NC(=O)CNC(=O)[C@H](CCC(=O)O)NC(=O)[C@H](CC(C)C)NC(C)=O)C(C)C)[C@@H](C)CC)[C@@H](C)O)C(N)=O)C(=O)O)C(=O)O)C(=O)O [compound 132] (Ac-LEGREKVRAK(Ac)I[Aib][Aib]EG[Nle]STWS[αMeK][Cit]AK(Ac)K([AEEA-AEEA-AEEA-AEEA-γGlu-γGlu-γGlu-Stearoyl])-NH2),87,
CCCCCCCCCCCCCCCCCC(=O)N[C@@H](CCC(=O)N[C@@H](CCC(=O)N[C@@H](CCC(=O)NCCOCCOCC(=O)NCCOCCOCC(=O)NCCOCCOCC(=O)NCCCC[C@H](NC(=O)[C@H](CCCCNC(C)=O)NC(=O)[C@H](CCCCN)NC(=O)[C@H](CCCNC(=N)NC)NC(=O)C(C)(C)NC(=O)[C@H](CO)NC(=O)[C@H](Cc1c[nH]c2ccccc12)NC(=O)[C@@H](NC(=O)[C@H](CO)NC(=O)[C@H](CCCC)NC(=O)CNC(=O)[C@H](CCC(=O)O)NC(=O)C(C)(C)NC(=O)C(C)(C)NC(=O)[C@@H](NC(=O)[C@H](CCCCNC(C)=O)NC(=O)[C@H](C)NC(=O)[C@H](CCCNC(=N)N)NC(=O)[C@@H](NC(=O)[C@H](CCCCN)NC(=O)[C@H](CCC(=O)O)NC(=O)[C@H](CCCNC(=N)N)NC(=O)CNC(=O)[C@H](CCC(=O)O)NC(=O)[C@H](CC(C)C)NC(C)=O)C(C)C)[C@@H](C)CC)[C@@H](C)O)C(N)=O)C(=O)O)C(=O)O)C(=O)O [compound 133] (Ac-LEGREKVRAK(Ac)I[Aib][Aib]EG[Nle]STWS[Aib][Arg(Me)]KK(Ac)K([AEEA-AEEA-AEEA-γGlu-γGlu-γGlu-Stearoyl])-NH2),83,0.01
CCCCCCCCCCCCCCCCCC(=O)N[C@@H](CCC(=O)N[C@@H](CCC(=O)N[C@@H](CCC(=O)NCCOCCOCC(=O)NCCOCCOCC(=O)NCCOCCOCC(=O)NCCCC[C@H](NC(=O)[C@H](CCCCNC(C)=O)NC(=O)[C@H](CCCC[N+](C)(C)C)NC(=O)[C@H](CCCNC(=N)N)NC(=O)C(C)(C)NC(=O)[C@H](CO)NC(=O)[C@H](Cc1c[nH]c2ccccc12)NC(=O)[C@@H](NC(=O)[C@H](CO)NC(=O)[C@H](CCCC)NC(=O)CNC(=O)[C@H](CCC(=O)O)NC(=O)C(C)(C)NC(=O)C(C)(C)NC(=O)[C@@H](NC(=O)[C@H](CCCCNC(C)=O)NC(=O)[C@H](C)NC(=O)[C@H](CCCNC(=N)N)NC(=O)[C@@H](NC(=O)[C@H](CCCCN)NC(=O)[C@H](CCC(=O)O)NC(=O)[C@H](CCCNC(=N)N)NC(=O)CNC(=O)[C@H](CCC(=O)O)NC(=O)[C@H](CC(C)C)NC(C)=O)C(C)C)[C@@H](C)CC)[C@@H](C)O)C(N)=O)C(=O)O)C(=O)O)C(=O)O [compound 134] (Ac-LEGREKVRAK(Ac)I[Aib][Aib]EG[Nle]STWS[Aib]R[Lys(Me3)]K(Ac)K([AEEA-AEEA-AEEA-γGlu-γGlu-γGlu-Stearoyl])-NH2),100,
CCCCCCCCCCCCCCCCCC(=O)N[C@@H](CCC(=O)N[C@@H](CCC(=O)N[C@@H](CCC(=O)NCCOCCOCC(=O)NCCOCCOCC(=O)NCCOCCOCC(=O)NCCOCCOCC(=O)NCCCC[C@H](NC(=O)[C@H](CCCCNC(C)=O)NC(=O)[C@H](C)NC(=O)[C@H](CCCNC(=N)N)NC(=O)[C@](C)(CCCCN)NC(=O)[C@H](CO)NC(=O)[C@H](Cc1c[nH]c2ccccc12)NC(=O)[C@@H](NC(=O)[C@H](CO)NC(=O)[C@H](CCCC)NC(=O)CNC(=O)[C@H](CCC(=O)O)NC(=O)C(C)(C)NC(=O)C(C)(C)NC(=O)[C@@H](NC(=O)[C@H](CCCCNC(C)=O)NC(=O)[C@H](C)NC(=O)[C@H](CCCNC(=N)N)NC(=O)[C@@H](NC(=O)[C@H](CCCCN)NC(=O)[C@H](CCC(=O)O)NC(=O)[C@H](CCCNC(=N)N)NC(=O)CNC(=O)[C@H](CCC(=O)O)NC(=O)[C@H](CC(C)C)NC(C)=O)C(C)C)[C@@H](C)CC)[C@@H](C)O)C(N)=O)C(=O)O)C(=O)O)C(=O)O [compound 135] (Ac-LEGREKVRAK(Ac)I[Aib][Aib]EG[Nle]STWS[αMeK]RAK(Ac)K([AEEA-AEEA-AEEA-AEEA-γGlu-γGlu-γGlu-Stearoyl])-NH2),97,
CCCCCCCCCCCCCCCCCC(=O)N[C@@H](CCC(=O)N[C@@H](CCC(=O)N[C@@H](CCC(=O)NCCOCCOCC(=O)NCCOCCOCC(=O)NCCOCCOCC(=O)NCCCC[C@H](NC(=O)[C@H](CCCCNC(C)=O)NC(=O)[C@H](CCCC[N+](C)(C)C)NC(=O)[C@H](CCCNC(=N)NC)NC(=O)C(C)(C)NC(=O)[C@H](CO)NC(=O)[C@H](Cc1c[nH]c2ccccc12)NC(=O)[C@@H](NC(=O)[C@H](CO)NC(=O)[C@H](CCCC)NC(=O)CNC(=O)[C@H](CCC(=O)O)NC(=O)C(C)(C)NC(=O)C(C)(C)NC(=O)[C@@H](NC(=O)[C@H](CCCCNC(C)=O)NC(=O)[C@H](C)NC(=O)[C@H](CCCNC(=N)N)NC(=O)[C@@H](NC(=O)[C@H](CCCCN)NC(=O)[C@H](CCC(=O)O)NC(=O)[C@H](CCCNC(=N)N)NC(=O)CNC(=O)[C@H](CCC(=O)O)NC(=O)[C@H](CC(C)C)NC(C)=O)C(C)C)[C@@H](C)CC)[C@@H](C)O)C(N)=O)C(=O)O)C(=O)O)C(=O)O [compound 137] (Ac-LEGREKVRAK(Ac)I[Aib][Aib]EG[Nle]STWS[Aib][Arg(Me)][Lys(Me3)]K(Ac)K([AEEA-AEEA-AEEA-γGlu-γGlu-γGlu-Stearoyl])-NH2),92,0.21
CCCCCCCCCCCCCCCCCC(=O)N[C@@H](CCC(=O)N[C@@H](CCC(=O)N[C@@H](CCC(=O)N[C@@H](CCC(=O)NCCOCCOCC(=O)NCCOCCOCC(=O)NCCOCCOCC(=O)NCCCC[C@H](NC(=O)[C@H](CCCCNC(C)=O)NC(=O)[C@H](CCCC[N+](C)(C)C)NC(=O)[C@H](CCCNC(=N)NC)NC(=O)[C@](C)(CCCCN)NC(=O)[C@H](CO)NC(=O)[C@H](Cc1c[nH]c2ccccc12)NC(=O)[C@@H](NC(=O)[C@H](CO)NC(=O)[C@H](CCCC)NC(=O)CNC(=O)[C@H](CCC(=O)O)NC(=O)C(C)(C)NC(=O)C(C)(C)NC(=O)[C@@H](NC(=O)[C@H](CCCCNC(C)=O)NC(=O)[C@H](C)NC(=O)[C@H](CCCNC(=N)N)NC(=O)[C@@H](NC(=O)[C@H](CCCCN)NC(=O)[C@H](CCC(=O)O)NC(=O)[C@H](CCCNC(=N)N)NC(=O)CNC(=O)[C@H](CCC(=O)O)NC(=O)[C@H](CC(C)C)NC(C)=O)C(C)C)[C@@H](C)CC)[C@@H](C)O)C(N)=O)C(=O)O)C(=O)O)C(=O)O)C(=O)O [compound 138] (Ac-LEGREKVRAK(Ac)I[Aib][Aib]EG[Nle]STWS[αMeK][Arg(Me)][Lys(Me3)]K(Ac)K([AEEA-AEEA-AEEA-γGlu-γGlu-γGlu-γGlu-Stearoyl])-NH2),91,
CCCCCCCCCCCCCCCC(=O)N[C@@H](CCC(=O)NCCCC[C@H](NC(=O)CC[C@H](NC(=O)CC[C@H](NC(=O)CC[C@H](NC(=O)COCCOCCNC(=O)COCCOCCNC(=O)COCCOCCNC(=O)COCCOCCNC(=O)[C@H](CCCCNC(C)=O)NC(=O)[C@H](C)NC(=O)[C@H](C)NC(=O)[C@](C)(CCCCN)NC(=O)[C@H](CO)NC(=O)[C@H](Cc1ccccc1)NC(=O)[C@@H](NC(=O)[C@H](CO)NC(=O)[C@H](CCCC)NC(=O)CNC(=O)[C@H](CCC(=O)O)NC(=O)C(C)(C)NC(=O)C(C)(C)NC(=O)[C@@H](NC(=O)[C@H](CCCCNC(C)=O)NC(=O)[C@H](C)NC(=O)[C@H](CCCNC(=N)N)NC(=O)[C@@H](NC(=O)[C@H](CCCCN)NC(=O)[C@H](CCC(=O)O)NC(=O)[C@H](CCCNC(=N)N)NC(=O)CNC(=O)[C@H](CCC(=O)O)NC(=O)[C@H](CC(C)C)NC(C)=O)C(C)C)[C@@H](C)CC)[C@@H](C)O)C(=O)O)C(=O)O)C(=O)O)C(N)=O)C(=O)O [compound 139] (Ac-LEGREKVRAK(Ac)I[Aib][Aib]EG[Nle]STFS[αMeK]AAK(Ac)[AEEA][AEEA][AEEA][AEEA][γGlu][γGlu][γGlu]K([γGlu-Palmitoyl])-NH2),92,0.3
